# Experimental data published in patent US20250161260A1, “USE OF DELTA-TOCOTRIENOL TO REDUCE THE PROGRESSION OF A NEOPLASM TO A CANCER” (H. LEE MOFFITT CANCER CENTER AND RESEARCH INSTITUTE, INC., priority 2022, published 2025).
# B1: DKK1: Wnt antagonist (protein, UniProt O94907 32-266, looked up)
# Dickkopf-related protein 1: TLNSVLNSNAIKNLPPPLGGAAGHPGSAVSAAPGILYPGGNKYQTIDNYQPYPCAEDEECGTDEYCASPTRGGDAGVQICLACRKRRKRCMRHAMCCPGNYCKNGICVSSDQNHFRGEIEETITESFGNDHSTLDGYSRRTTLSSKMYHTKGQEGSVCLRSSDCASGLCCARHFWSKICKPVLKEGQVCTKHRRKGSHGLEIFQRCYCGEGLSCRIQKDHHQASNSSRLHTCQRH
# Legend:
# [1] = human, in vivo
# Protocol: (§1) DT3 has been widely used as a dietary supplement for its presumptive benefit in promoting health by decreasing serum cholesterol levels. […] In an NCI-sponsored phase 1 study (NCT00985777), we enrolled 9 out of 25 patients with IPMNs who were treated with DT3 for 2 weeks. […] In our IHC analyses of tumor specimens, we observed a significant induction of cleaved caspase-3 and BAX in the IPMN neoplastic cells of 7 of 9 patients (77%) treated at doses of 100 mg orally twice daily or higher (FIG. 1). We identified 400 mg BID as a Biological Effective Dose (BED) for DT3 in our phase I trial^33. Therefore, we propose to confirm DT3 activity on IPMNs at 400 mg twice daily in a phase II trial, since this was the most bioactive dose observed in our phase I trial.
# [2] = test system: β-catenin expression in 3T3 cells; assay: β-catenin expression in 3T3 cells; type: cell-based
# [3] = test system: LGKC2 cells; assay: Apoptosis by flow cytometry (annexin V / propidium iodide), LGKC2; type: cell-based, murine; conditions: LGKC2, IC50 dose, 48 h
# Protocol: (§2) LGKC1 (9A, 9C, 9E) and LGKC2 (9B, 9D, 9E) cells were treated with IC50 dose of DT 3 for 48 h. Apoptosis was measured by flow cytometry following annexin V and propidium iodide staining (9A, 9B). For cell cycle analysis by flow cytometry (9C, 9D) cells were synchronized with double thymidine block prior to treatment with DT 3. Following the treatment, cell lysates were prepared and impact on downstream signaling was performed by immunoblotting using the indicated antibodies (9E) and subjected to RNA sequencing (9F).
# (§3) To determine if the reduced cell proliferation of IPMN cells by DT3 were due to its impact on cell cycle or cell death, we assayed apoptosis and cell cycle analysis by flow cytometry. […] RNA seq analysis of the treated cells further indicated significant upregulation of biological processes associated with programmed cell death, cell proliferation, immune response, and collagen fibril organization (FIG. 9F).
# [4] = test system: Wnt receptor activity in 3T3 cells; assay: Wnt receptor activity (luciferase units) in 3T3 cells; type: cell-based; conditions: after Wnt3a
# [5] = test system: LGKC2 cells; assay: Immunoblotting of downstream signaling, LGKC2; type: cell-based, murine; conditions: LGKC2, IC50 dose
# Protocol: as §2, §3
# [6] = test system: LGKC2 cells; assay: Cell proliferation by MTT assay, LGKC2; type: cell-based, murine; conditions: LGKC2, 48 h
# Protocol: (§4) LGKC1 (left) and LGKC2 cells were treated with varying doses of DT3 for 24, 48, and 72 h and cell proliferation were measured by MTT assay.
# (§5) We further studied the effect of DT3 on the proliferation of recently described murine IPMN cell lines LGKC1 & LGKC2 derived from constitutively active Kras and Gnas murine model of pancreatic cystic lesions [p48-Cre; KrasG12D; Rosa26R-rtTA-TetO-GnasR201C]. […] These IC50 doses were used for downstream functional studies in LGKC1 and LGKC2 cell lines.
# [7] = test system: LGKC1 cells; assay: Cell proliferation by MTT assay, LGKC1; type: cell-based, murine; conditions: LGKC1, 48 h
# Protocol: as §4, §5
# [8] = test system: LGKC1 cells; assay: Immunoblotting of downstream signaling, LGKC1; type: cell-based, murine; conditions: LGKC1, IC50 dose
# Protocol: as §2, §3
# [9] = test system: LGKC2 cells; assay: Cell cycle analysis by flow cytometry, LGKC2; type: cell-based, murine; conditions: LGKC-2, IC50 dose, 48 h, double thymidine block
# Protocol: as §2, §3
# [10] = test system: β-catenin expression in PCSCs; assay: β-catenin expression in human PC stem cells (PCSCs); type: cell-based; conditions: less inhibition with DT 3 without Wnt3a pretreatment
# [11] = test system: HPNE cells; assay: Apoptosis (C-PARP) in HPNE cells; type: cell-based
# [12] = test system: β-catenin expression in HPNE-Kras cells; assay: β-catenin expression in HPNE-Kras cells; type: cell-based
# [13] = test system: HPNE-Kras cells; assay: Apoptosis (C-PARP) and signaling protein expression in HPNE-Kras cells; type: cell-based
# [14] = test system: LGKC1 cells; assay: Apoptosis by flow cytometry (annexin V / propidium iodide), LGKC1; type: cell-based, murine; conditions: LGKC1, IC50 dose, 48 h
# Protocol: as §2, §3
# [15] = test system: LGKC1 cells; assay: Cell cycle analysis by flow cytometry, LGKC1; type: cell-based, murine; conditions: LGKC-1, IC50 dose, 48 h, double thymidine block
# Protocol: as §2, §3
# [16] = test system: IPMN neoplastic cells; assay: IHC of cleaved caspase-3 and BAX in tumor specimens of patients treated with DT3; type: in vivo, human
# Protocol: Lower panel is IHC stained for the pro-apoptotic protein Bax, illustrating the association of DT 3 induction of apoptosis with increased expression of Bax
# as §1
# [17] = 100 mg orally twice daily or higher, 2 weeks
molecule,measurement,setting,value
"CC(C)=CCC/C(C)=C/CC/C(C)=C/CC[C@]1(C)CCc2cc(O)cc(C)c2O1 [DT3, δ-tocotrienol]",half-life,[1],approximately 4 hours
same,"toxicity (dose-limiting toxicities, drug-related adverse events, postoperative complications)",[1],no evidence of toxicity
same,Wnt agonist-induced β-catenin expression,[2],inhibited
same,apoptosis,[3],induced apoptosis
same,agonist (Wnt3a)-induced Wnt receptor activity (luciferase units),[4],significantly inhibited
same,expression of b-catenin,[5],no effect
same,"p-AKT, p-ERK1/2, cyclin D1",[5],significant reduction
same,pGSK3β and cleaved PARP,[5],upregulation
same,IC50,[6],29.4 µM
same,IC50,[7],25.3 µM
same,expression of b-catenin,[8],no effect
same,"p-AKT, p-ERK1/2, cyclin D1",[8],significant reduction
same,pGSK3β and cleaved PARP,[8],upregulation
same,cell cycle progression,[9],no effect on cell cycle progression
same,β-catenin expression,[10],abolished
same,apoptosis (C-PARP),[11],not in HPNE cells
same,β-catenin expression,[12],abolished
same,apoptosis (C-PARP),[13],selectively induced apoptosis
same,"expression of MUC4, MUC16, β-catenin and downstream proteins (C-myc, cyclin D1, survivin)",[13],decreased the expression
same,pAKT and pERK,[13],inhibited
same,apoptosis,[14],induced apoptosis
same,cell cycle progression,[15],G2/M arrest and accumulation of cells in S-phase
same,patients with significant induction of cleaved caspase-3 and BAX in IPMN neoplastic cells,[16]; [17],7 of 9
same,percent of patients with significant induction of cleaved caspase-3 and BAX in IPMN neoplastic cells,[16]; [17],77%
same,apoptosis as measured by cleaved caspase-3 expression (IHC),[16]; patients with IPMN,significantly induced apoptosis
B1,Wnt agonist-induced β-catenin expression,[2],inhibited
same,agonist (Wnt3a)-induced Wnt receptor activity (luciferase units),[4],inhibited
same,β-catenin expression,[10],abolished
same,β-catenin expression,[12],abolished
